{
  "source": "patent US11819485B2",
  "about": "“Levodopa fractionated dose composition and use” (AVION PHARMACEUTICALS, LLC, priority 2018, dated 2023)",
  "origin": "cited, not measured here",
  "key": {"[1]": {"details": "steady intravenous dose, plasma LD kept within efficacy-with-no-MRCs range, as long as the infusion lasted"}, "[2]": {"assay": "not given", "remark": "listed apart in the source"}},
  "note": "Where two headings read alike, the source gives them in different places.",
  "data": [
    {"smiles": "N[C@@H](Cc1ccc(O)c(O)c1)C(=O)O", "note": "[LD, Levodopa]", "values": [
      {"measurement": "antiparkinsonian effect and dyskinesias during infusion", "setting": "[1]", "result": "full antiparkinsonian effect (no wearing off) without any dyskinesias"},
      {"measurement": "solubility in water", "result": "poorly soluble in water"},
      {"measurement": "duration of effect of each LD dose", "setting": "[2]; beginning of the disease, orally administered LD", "result": 6, "unit": "h"},
      {"measurement": "duration of effect of each dose", "setting": "[2]; early stages of the disease", "result": "approximately 6 hours"},
      {"measurement": "duration of effect of each dose", "setting": "[2]; ultimately, as PD progresses", "result": "about 1.5 hours"}
    ]}
  ]
}
